Data from US8030344B2, “Inhibitors of histone deacetylase” (MethylGene Inc., priority 2007, dated 2011).
pIC50: −log10 of the molar value.

Assays:
HCT116 cells = experiment: MTT assay on HCT116 cells; assay type: cell-based; details: 72 hours incubation, concentration reducing cell numbers to 50% of solvent treated cells
Method: (§1) HCT116 cells (2000/well) are plated into 96-well tissue culture plates one day before compound treatment. Representative compounds at various concentrations were added to the cells. The cells are incubated for 72 hours at 37° C. in 5% CO2 incubator. MTT (3-[4,5-dimethylthiazol-2-yl]-2,5 diphenyl tetrazolium bromide, Sigma) is added at a final concentration of 0.5 mg/ml and incubated with the cells for 4 hours before one volume of solubilization buffer (50% N,N-dimethylformamide, 20% SDS, pH 4.7) is added onto the cultured cells. After overnight incubation, solubilized dye is quantified by calorimetric reading at 570 nM using a reference at 630 nM. OD values are converted to cell numbers according to a standard growth curve of the relevant cell line. The concentration which reduces cell numbers to 50% of that of solvent treated cells is determined as MTT IC50. A similar assay is performed on HMEC cells.

HDAC-2 = HDAC-2 (Homo sapiens, UniProt Q92769); experiment: Similar assay measuring HDAC-2 inhibitory activity; assay type: biochemical
Method: (§2) The following protocol is used to assay the compounds of the invention. In the assay, the buffer used is 25 mM HEPES, pH 8.0, 137 mM NaCl, 2.7 mM KCl, 1 mM MgCl2 and the substrate is Boc-Lys(Ac)-AMC in a 50 mM stock solution in DMSO. The enzyme stock solution is 4.08 μg/mL in buffer.
(§3) The compounds are pre-incubated (2 μl in DMSO diluted to 13 μl in buffer for transfer to assay plate) with enzyme (20 μl of 4.08 μg/ml) for 10 minutes at room temperature (35 μl pre-incubation volume). The mixture is pre-incubated for 5 minutes at room temperature. The reaction is started by bringing the temperature to 37° C. and adding 15 μl substrate. Total reaction volume is 50 μl. The reaction is stopped after 20 minutes by addition of 50 μl developer, prepared as directed by Biomol (Fluor-de-Lys developer, Cat. # KI-105). A plate is incubated in the dark for 10 minutes at room temperature before reading (λEx=360 nm, λEm=470 nm, Cutoff filter at 435 nm). Similar assays are performed to measure HDAC-2 inhibitory activity

HDAC-1 = HDAC-1 (Homo sapiens, UniProt Q13547); experiment: Inhibition of histone deacetylase enzymatic (HDAC-1) activity, Boc-Lys(Ac)-AMC fluorescence assay; assay type: biochemical
Method: Inhibition of Histone Deacetylase Enzymatic (HDAC-1) Activity
as §2, §3

HMEC cells = experiment: MTT assay on HMEC cells; assay type: cell-based; details: similar MTT assay on HMEC cells
Method: as §1

Sequence of HDAC-1 (Q13547 whole entry): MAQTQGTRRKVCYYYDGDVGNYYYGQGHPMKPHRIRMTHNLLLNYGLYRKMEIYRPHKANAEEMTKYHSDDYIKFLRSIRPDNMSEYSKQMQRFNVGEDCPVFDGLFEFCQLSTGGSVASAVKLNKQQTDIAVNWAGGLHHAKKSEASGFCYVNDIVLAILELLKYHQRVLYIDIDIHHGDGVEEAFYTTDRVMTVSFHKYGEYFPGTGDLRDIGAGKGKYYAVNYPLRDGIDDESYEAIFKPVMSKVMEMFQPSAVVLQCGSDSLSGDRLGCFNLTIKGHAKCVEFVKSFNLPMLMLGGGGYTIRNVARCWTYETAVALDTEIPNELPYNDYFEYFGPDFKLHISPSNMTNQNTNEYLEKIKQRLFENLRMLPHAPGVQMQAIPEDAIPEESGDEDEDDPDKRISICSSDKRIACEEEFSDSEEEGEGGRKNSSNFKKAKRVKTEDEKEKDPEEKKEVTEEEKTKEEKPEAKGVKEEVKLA
Sequence of HDAC-2 (Q92769 whole entry): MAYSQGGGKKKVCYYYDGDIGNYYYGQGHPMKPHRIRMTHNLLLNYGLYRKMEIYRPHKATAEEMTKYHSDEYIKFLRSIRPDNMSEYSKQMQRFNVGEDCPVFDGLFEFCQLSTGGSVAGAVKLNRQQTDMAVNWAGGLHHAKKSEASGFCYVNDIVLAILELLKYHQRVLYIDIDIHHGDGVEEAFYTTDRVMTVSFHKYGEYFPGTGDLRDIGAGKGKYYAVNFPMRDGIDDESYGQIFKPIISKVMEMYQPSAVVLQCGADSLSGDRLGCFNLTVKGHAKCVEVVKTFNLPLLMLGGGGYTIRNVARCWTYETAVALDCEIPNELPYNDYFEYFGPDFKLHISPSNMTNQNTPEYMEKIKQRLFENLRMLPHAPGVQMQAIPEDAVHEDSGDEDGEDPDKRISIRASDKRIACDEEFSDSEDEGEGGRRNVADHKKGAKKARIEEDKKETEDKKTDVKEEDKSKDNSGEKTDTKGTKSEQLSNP

Molecule	pIC50 (HCT116 cells; Homo sapiens, HCT-116)	pIC50 (HDAC-2)	pIC50 (HDAC-1)	pIC50 (HCT116 cells)	pIC50 (HMEC cells; Homo sapiens)	pIC50 (HMEC cells)
CCOC(=O)N[C@H]1CCN(c2ccc(C(=O)Nc3ccccc3N)cc2)C1 [Compound 121, (S)-Ethyl 1-(4-(2-aminophenylcarbamoyl)phenyl)pyrrolidin-3-yl carbamate]	–	≥ 6.30	≥ 6.30	≥ 6.00	–	≥ 4.30
Nc1ccccc1NC(=O)c1ccc(N2CC[C@H](NC(=O)OCc3cccnc3)C2)cc1 [Compound 127, ((S)-Pyridin-3-ylmethyl-1-(4-(2-aminophenylcarbamoyl)phenyl)pyrrolidin-3-yl carbamate]	≥ 5.30	≥ 5.30	≥ 6.00	–	< 4.30	–
Nc1ccccc1NC(=O)c1ccc(N2CC[C@H](NC(=O)NCc3cccnc3)C2)cc1 [Compound 128, (S)-N-(2-Aminophenyl)-4-(3-(3-(pyridin-3-ylmethyl)ureido)pyrrolidin-1-yl)benzamide]	≥ 5.30	≥ 6.00	≥ 5.30	–	≥ 4.30	–
COCCOC(=O)N[C@H]1CCN(c2ccc(C(=O)Nc3ccccc3N)cc2)C1 [Compound 129, (S)-2-Methoxyethyl-1-(4-(2-aminophenylcarbamoyl)phenyl)pyrrolidin-3-yl carbamate]	–	–	–	≥ 6.00	–	≥ 4.30
COCCOC(=O)N[C@@H]1CCN(c2ccc(C(=O)Nc3ccccc3N)cc2)C1 [Compound 130]	≥ 5.30	≥ 5.30	≥ 5.30	–	–	–
CN(C)CCCOC(=O)N[C@H]1CCN(c2ccc(C(=O)Nc3ccccc3N)cc2)C1 [Compound 144, (S)-3-(Dimethylamino)propyl 1-(4-(2-aminophenylcarbamoyl)phenyl)pyrrolidin-3-yl carbamate]	–	≥ 6.30	≥ 6.30	≥ 6.00	–	–
COCCOC(=O)N[C@H]1CCN(c2ncc(C(=O)Nc3ccccc3N)cn2)C1 [Compound 151, (S)-2-Methoxyethyl 1-(5-(2-aminophenylcarbamoyl)pyrimidin-2-yl)pyrrolidin-3-ylcarbamate]	≥ 4.30	–	≥ 6.00	–	–	–
COCCOC(=O)N[C@H]1CCN(c2ccc(C(=O)Nc3ccccc3N)cn2)C1 [Compound 154, (S)-2-Methoxyethyl 1-(5-(2-aminophenylcarbamoyl)pyridin-2-yl)pyrrolidin-3-ylcarbamate]	≥ 5.30	≥ 5.30	≥ 6.30	–	–	–
CC(=O)O[C@H]1CCN(c2ccc(C(=O)Nc3ccccc3N)cc2)C1 [Compound 159, (S)-1-(4-(2-Aminophenylcarbamoyl)phenyl)pyrrolidin-3-yl acetate]	–	≥ 6.00	≥ 6.30	–	–	–
Nc1ccccc1NC(=O)c1ccc(N2CC[C@H](O)C2)cc1 [Compound 160, (S)-N-(2-Aminophenyl)-4-(3-hydroxypyrrolidin-1-yl)benzamide]	–	≥ 6.00	≥ 6.00	–	–	–
CN(C)[C@H]1CCN(c2ccc(C(=O)Nc3ccccc3N)cc2)C1 [Compound 165, (S)-N-(2-Aminophenyl)-4-(3-(dimethylamino)pyrrolidin-1-yl)benzamide]	–	≥ 5.30	≥ 6.00	–	–	–
Nc1ccccc1NC(=O)c1ccc(N2CC[C@H](NC(=O)OCCN3CCOCC3)C2)cc1 [Compound 195, (S)-2-morpholinoethyl 1-(4-(2-aminophenylcarbamoyl)-phenyl)pyrrolidin-3-ylcarbamate]	≥ 5.30	≥ 6.00	≥ 6.30	–	–	–
COC(=O)N(Cc1cccnc1)[C@H]1CCN(c2ccc(C(=O)Nc3ccccc3N)cc2)C1 [Compound 196, (S)-methyl 1-(4-(2-aminophenylcarbamoyl)phenyl)-pyrrolidin-3-yl(pyridin-3-ylmethyl)carbamate]	≥ 5.30	≥ 6.30	≥ 6.30	–	–	–
(S)-Methyl 1-(5-(2-aminophenyl carbamoyl)pyrimidin-2-yl) pyrrolidin-3-yl carbamate [Compound 152]	–	–	≥ 6.00	≥ 5.00	–	–

Continued, in another order:

pIC50 (HCT116 cells; Homo sapiens, HCT-116)	pIC50 (HDAC-2)	pIC50 (HDAC-1)	pIC50 (HCT116 cells)	Molecule	pIC50 (HMEC cells; Homo sapiens)	pIC50 (HMEC cells)
≥ 6.00	≥ 6.30	≥ 6.30	–	CN(C)CCOC(=O)N[C@H]1CCN(c2ccc(C(=O)Nc3ccccc3N)cc2)C1 [Compound 119, (S)-2-(Dimethylamino)ethyl-1-(4-(2-aminophenylcarbamoyl) -phenyl)pyrrolidin-3-ylcarbamate]	< 4.30	–
–	≥ 6.30	≥ 6.30	–	COC(=O)N[C@H]1CCN(c2ccc(C(=O)Nc3ccccc3N)cc2)C1 [Compound 120, (S)-Methyl 1-(4-(2-aminophenylcarbamoyl)phenyl)pyrrolidin-3-yl carbamate]	< 4.30	–
≥ 6.00	≥ 6.30	≥ 6.30	–	CC(C)(C)OC(=O)N[C@H]1CCN(c2ccc(C(=O)Nc3ccccc3N)cc2)C1 [Compound 122, (S)-tert-Butyl 1-(4-(2-aminophenylcarbamoyl)phenyl)pyrrolidin-3-yl carbamate]	≥ 4.30	–
≥ 6.30	≥ 5.30	≥ 6.30	–	CC(C)COC(=O)N[C@H]1CCN(c2ccc(C(=O)Nc3ccccc3N)cc2)C1 [Compound 123, (S)-Isobutyl 1-(4-(2-aminophenylcarbamoyl)phenyl)pyrrolidin-3-yl carbamate]	≥ 4.30	–
–	≥ 7.00	≥ 6.30	–	Nc1ccccc1NC(=O)c1ccc(N2CC[C@H](NC(=O)OCc3ccccc3)C2)cc1 [Compound 124, (S)-Benzyl 1-(4-(2-aminophenylcarbamoyl)phenyl)pyrrolidin-3-yl carbamate]	≥ 5.30	–
≥ 6.00	≥ 6.00	≥ 6.30	–	Nc1ccccc1NC(=O)c1ccc(N2CC[C@H](NC(=O)N3CCOCC3)C2)cc1 [Compound 126, (S)-N-(1-(4-(2-Aminophenylcarbamoyl)phenyl)pyrrolidin-3-yl)morpholine-4-carboxamide]	< 4.30	–
≥ 6.00	≥ 5.30	≥ 6.30	–	Nc1ccccc1NC(=O)c1ccc(N2CC[C@H](NC(=S)NCc3cccnc3)C2)cc1 [Compound 131, (S)-N-(2-Aminophenyl)-4-(3-(3-(pyridin-3-ylmethyl)thioureido)pyrrolidin-1-yl)benzamide]	–	–
≥ 6.30	≥ 6.30	≥ 7.00	–	COC(=S)N[C@H]1CCN(c2ccc(C(=O)Nc3ccccc3N)cc2)C1 [Compound 135, (S)-O-Methyl 1-(4-(2-aminophenylcarbamoyl)phenyl)pyrrolidin-3-ylcarbamothioate]	≥ 5.00	–
≥ 6.00	≥ 6.30	≥ 6.30	–	Nc1ccccc1NC(=O)c1ccc(N2CC[C@H](NC(=O)OCC(F)(F)F)C2)cc1 [Compound 140, (S)-2,2,2-Trifluoroethyl 1-(4-(2-aminophenylcarbamoyl)phenyl) -pyrrolidin-3-ylcarbamate]	≥ 5.00	–
≥ 5.30	≥ 6.30	≥ 6.30	–	CN1CC[C@@H](OC(=O)N[C@H]2CCN(c3ccc(C(=O)Nc4ccccc4N)cc3)C2)C1 [Compound 146, (R)-1-Methylpyrrolidin-3-yl (S)-1-(4-(2-aminophenylcarbamoyl)phenyl)pyrrolidin-3-yl carbamate]	–	–
–	≥ 6.30	≥ 7.00	–	Nc1ccccc1NC(=O)c1ccc(N2CC[C@H](NC(=O)OCC3c4ccccc4-c4ccccc43)C2)cc1 [Compound 201, (S)-(9H-fluoren-9-y)methyl 1-(4-(2-aminophenylcarbamoyl)-phenyl)pyrrolidin-3-ylcarbamate]	–	–
